Source: PubChem BioAssay AID1919005 (Molecular Pharmacology Branch, DTP, NCI, 2023)

Tested on: 855422-203-R-J1-PDC complex spheroid growth
Test: Anticancer human tumor 855422-203-R-J1-PDC patient-derived bladder carcinoma cell line growth inhibition [AhR]
Details: for IC50: curve of first compound; for viability, T/C: stronger effect = lower value
How it was run: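 Complex tumor spheroids co-cultured with HUVEC and human MSC stroma; AhR antagonists tested in combination with standard-of-care and investigational agents. Top concentration at or near clinical Cmax (else 10 microM), half-log dilutions; growth expressed as percent test/control.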

[1] = second compound 0.1 µM, first compound 0.00316 µM
[2] = second compound 0.1 µM, first compound 0.01 µM
[3] = second compound 0.1 µM, first compound 0.0316 µM
[4] = second compound 0.1 µM, first compound 0.1 µM
[5] = second compound 0.316 µM, first compound 0.00316 µM
[6] = second compound 0.316 µM, first compound 0.01 µM
[7] = second compound 0.316 µM, first compound 0.0316 µM
[8] = second compound 0.316 µM, first compound 0.1 µM
[9] = second compound 1 µM, first compound 0.00316 µM
[10] = second compound 1 µM, first compound 0.01 µM
[11] = second compound 1 µM, first compound 0.0316 µM
[12] = second compound 1 µM, first compound 0.1 µM
[13] = second compound 3.16 µM, first compound 0.00316 µM
[14] = second compound 3.16 µM, first compound 0.01 µM
[15] = second compound 3.16 µM, first compound 0.0316 µM
[16] = second compound 3.16 µM, first compound 0.1 µM
[17] = second compound 10 µM, first compound 0.00316 µM
[18] = second compound 10 µM, first compound 0.01 µM
[19] = second compound 10 µM, first compound 0.0316 µM
[20] = second compound 10 µM, first compound 0.1 µM
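Note: spheroids exposed to agents for seven days before readout.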
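Throughout, for viability, T/C: percent of DMSO vehicle control luminescence viability.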

Question: For `CC[C@@]1(O)C(=O)OCc2c1cc1n(c2=O)Cc2cc3c(CN(C)C)c(O)ccc3nc2-1` + CC(CO)NC(=O)c1cc(-c2ccc(Cl)cc2)nn(-c2cnn(C)c2)c1=O, which IC50 (second compound 0.1 µM) is on record?
Answer: 60.2 nM

Question: And the IC50 (second compound 0.316 µM)?
Answer: 58.6 nM

Question: And the IC50 (second compound 1 µM)?
Answer: 56.4 nM

Question: What about the IC50 (second compound 3.16 µM) of the same compound?
Answer: 54.7 nM

Question: And the IC50 (second compound 10 µM)?
Answer: 45.1 nM

Question: What about the viability, T/C (second compound 0.1 µM, first compound 0.000316 µM) of the same compound?
Answer: 96.7%

Question: What about the viability, T/C (second compound 0.1 µM, first compound 0.001 µM) of the same compound?
Answer: 97.5%

Question: What about the viability, T/C [1] of the same compound?
Answer: 93.7%

Question: And the viability, T/C [2]?
Answer: 102%

Question: And the viability, T/C [3]?
Answer: 86.5%

Question: And the viability, T/C [4]?
Answer: 20.9%

Question: What about the viability, T/C (second compound 0.316 µM, first compound 0.000316 µM) of the same compound?
Answer: 106%

Question: What about the viability, T/C (second compound 0.316 µM, first compound 0.001 µM) of the same compound?
Answer: 100%

Question: What about the viability, T/C [5] of the same compound?
Answer: 98.8%

Question: And the viability, T/C [6]?
Answer: 98.9%

Question: What about the viability, T/C [7] of the same compound?
Answer: 87.3%

Question: And the viability, T/C [8]?
Answer: 17.9%

Question: What about the viability, T/C (second compound 1 µM, first compound 0.000316 µM) of the same compound?
Answer: 104%

Question: What about the viability, T/C (second compound 1 µM, first compound 0.001 µM) of the same compound?
Answer: 97.8%

Question: And the viability, T/C [9]?
Answer: 105%

Question: What about the viability, T/C [10] of the same compound?
Answer: 104%

Question: What about the viability, T/C [11] of the same compound?
Answer: 84.9%

Question: And the viability, T/C [12]?
Answer: 15.5%

Question: And the viability, T/C (second compound 3.16 µM, first compound 0.000316 µM)?
Answer: 99.4%

Question: What about the viability, T/C (second compound 3.16 µM, first compound 0.001 µM) of the same compound?
Answer: 96.6%

Question: And the viability, T/C [13]?
Answer: 93%

Question: What about the viability, T/C [14] of the same compound?
Answer: 95.5%

Question: What about the viability, T/C [15] of the same compound?
Answer: 83.5%

Question: And the viability, T/C [16]?
Answer: 13%

Question: And the viability, T/C (second compound 10 µM, first compound 0.000316 µM)?
Answer: 86.2%

Question: What about the viability, T/C (second compound 10 µM, first compound 0.001 µM) of the same compound?
Answer: 100%

Question: What about the viability, T/C [17] of the same compound?
Answer: 102%

Question: And the viability, T/C [18]?
Answer: 96.3%

Question: What about the viability, T/C [19] of the same compound?
Answer: 65.8%

Question: What about the viability, T/C [20] of the same compound?
Answer: 14.8%

Question: With `CCc1c2c(nc3ccc(O)cc13)-c1cc3c(c(=O)n1C2)COC(=O)[C@]3(O)CC` + CC(CO)NC(=O)c1cc(-c2ccc(Cl)cc2)nn(-c2cnn(C)c2)c1=O as the compound, how does the IC50 (second compound 0.1 µM) read?
Answer: 5.26 nM

Question: And the IC50 (second compound 0.316 µM)?
Answer: 4.51 nM

Question: What about the IC50 (second compound 1 µM) of the same compound?
Answer: 3.42 nM

Question: What about the IC50 (second compound 3.16 µM) of the same compound?
Answer: 1.92 nM

Question: And the IC50 (second compound 10 µM)?
Answer: 1.48 nM

Question: What about the viability, T/C (second compound 0.1 µM, first compound 0.000949 µM) of the same compound?
Answer: 95.5%

Question: And the viability, T/C (second compound 0.1 µM, first compound 0.003 µM)?
Answer: 78.9%

Question: And the viability, T/C (second compound 0.1 µM, first compound 0.00949 µM)?
Answer: 19.4%

Question: And the viability, T/C (second compound 0.1 µM, first compound 0.03 µM)?
Answer: 13.2%

Question: What about the viability, T/C (second compound 0.1 µM, first compound 0.0949 µM) of the same compound?
Answer: 9.5%

Question: And the viability, T/C (second compound 0.1 µM, first compound 0.3 µM)?
Answer: 6.28%

Question: What about the viability, T/C (second compound 0.316 µM, first compound 0.000949 µM) of the same compound?
Answer: 85.6%

Question: And the viability, T/C (second compound 0.316 µM, first compound 0.003 µM)?
Answer: 68.7%

Question: And the viability, T/C (second compound 0.316 µM, first compound 0.00949 µM)?
Answer: 15.6%

Question: What about the viability, T/C (second compound 0.316 µM, first compound 0.03 µM) of the same compound?
Answer: 12.3%

Question: What about the viability, T/C (second compound 0.316 µM, first compound 0.0949 µM) of the same compound?
Answer: 6.86%

Question: And the viability, T/C (second compound 0.316 µM, first compound 0.3 µM)?
Answer: 4.21%

Question: And the viability, T/C (second compound 1 µM, first compound 0.000949 µM)?
Answer: 86.5%

Question: And the viability, T/C (second compound 1 µM, first compound 0.003 µM)?
Answer: 54.7%

Question: And the viability, T/C (second compound 1 µM, first compound 0.00949 µM)?
Answer: 13.9%

Question: And the viability, T/C (second compound 1 µM, first compound 0.03 µM)?
Answer: 11%

Question: What about the viability, T/C (second compound 1 µM, first compound 0.0949 µM) of the same compound?
Answer: 6.82%

Question: And the viability, T/C (second compound 1 µM, first compound 0.3 µM)?
Answer: 4.24%

Question: And the viability, T/C (second compound 3.16 µM, first compound 0.000949 µM)?
Answer: 72.2%

Question: And the viability, T/C (second compound 3.16 µM, first compound 0.003 µM)?
Answer: 36.3%

Question: What about the viability, T/C (second compound 3.16 µM, first compound 0.00949 µM) of the same compound?
Answer: 12.8%

Question: And the viability, T/C (second compound 3.16 µM, first compound 0.03 µM)?
Answer: 10.2%

Question: What about the viability, T/C (second compound 3.16 µM, first compound 0.0949 µM) of the same compound?
Answer: 6.61%

Question: And the viability, T/C (second compound 3.16 µM, first compound 0.3 µM)?
Answer: 4.22%

Question: And the viability, T/C (second compound 10 µM, first compound 0.000949 µM)?
Answer: 65.5%

Question: What about the viability, T/C (second compound 10 µM, first compound 0.003 µM) of the same compound?
Answer: 25.4%

Question: And the viability, T/C (second compound 10 µM, first compound 0.00949 µM)?
Answer: 12.6%

Question: And the viability, T/C (second compound 10 µM, first compound 0.03 µM)?
Answer: 9.84%

Question: What about the viability, T/C (second compound 10 µM, first compound 0.0949 µM) of the same compound?
Answer: 6.11%

Question: And the viability, T/C (second compound 10 µM, first compound 0.3 µM)?
Answer: 4.31%

Question: For `Nc1ncn(C2CC(O)C(CO)O2)c(=O)n1` (stereo not given) + Cc1ccccc1N=Nc1ccc(NC(=O)c2ccnn2C)c(C)c1, which IC50 (second compound 0.1 µM) is on record?
Answer: > 1000 nM

Question: What about the IC50 (second compound 0.316 µM) of the same compound?
Answer: > 1000 nM

Question: And the IC50 (second compound 1 µM)?
Answer: > 1000 nM

Question: And the IC50 (second compound 3.16 µM)?
Answer: > 1000 nM

Question: And the IC50 (second compound 10 µM)?
Answer: > 1000 nM

Question: What about the viability, T/C [1] of the same compound?
Answer: 94.4%

Question: And the viability, T/C [2]?
Answer: 98.1%

Question: What about the viability, T/C [3] of the same compound?
Answer: 93.4%

Question: What about the viability, T/C [4] of the same compound?
Answer: 98.2%

Question: And the viability, T/C (second compound 0.1 µM, first compound 0.316 µM)?
Answer: 93.5%

Question: What about the viability, T/C (second compound 0.1 µM, first compound 1 µM) of the same compound?
Answer: 86.4%

Question: And the viability, T/C [5]?
Answer: 102%

Question: What about the viability, T/C [6] of the same compound?
Answer: 104%

Question: And the viability, T/C [7]?
Answer: 103%

Question: What about the viability, T/C [8] of the same compound?
Answer: 94.4%

Question: What about the viability, T/C (second compound 0.316 µM, first compound 0.316 µM) of the same compound?
Answer: 93%

Question: What about the viability, T/C (second compound 0.316 µM, first compound 1 µM) of the same compound?
Answer: 82.8%

Question: What about the viability, T/C [9] of the same compound?
Answer: 106%

Question: And the viability, T/C [10]?
Answer: 98.5%

Question: And the viability, T/C [11]?
Answer: 94%

Question: And the viability, T/C [12]?
Answer: 93%

Question: What about the viability, T/C (second compound 1 µM, first compound 0.316 µM) of the same compound?
Answer: 87.2%

Question: What about the viability, T/C (second compound 1 µM, first compound 1 µM) of the same compound?
Answer: 89%

Question: And the viability, T/C [13]?
Answer: 97.4%

Question: What about the viability, T/C [14] of the same compound?
Answer: 96.3%

Question: And the viability, T/C [15]?
Answer: 94.9%

Question: And the viability, T/C [16]?
Answer: 92.9%

Question: And the viability, T/C (second compound 3.16 µM, first compound 0.316 µM)?
Answer: 85.7%

Question: And the viability, T/C (second compound 3.16 µM, first compound 1 µM)?
Answer: 83.5%

Question: What about the viability, T/C [17] of the same compound?
Answer: 84.7%

Question: What about the viability, T/C [18] of the same compound?
Answer: 82.1%

Question: And the viability, T/C [19]?
Answer: 84.3%

Question: What about the viability, T/C [20] of the same compound?
Answer: 84.3%

Question: What about the viability, T/C (second compound 10 µM, first compound 0.316 µM) of the same compound?
Answer: 78%

Question: What about the viability, T/C (second compound 10 µM, first compound 1 µM) of the same compound?
Answer: 76%
